Data taken from patent US11884642B2, “Compounds useful as potassium channel openers” (ACOUSIA THERAPEUTICS GMBH, priority 2017, dated 2024).

Test system: guinea pigs
Assay: Ototoxic drug-induced (kanamycin/furosemide) hearing loss model in vivo, CAP threshold recordings of the auditory nerve
Design: species or system guinea pig
Method: The inventive compounds were also tested in vivo. In this context, for repeated recording of the Compound Action Potential (CAP) of the auditory nerve, guinea pigs were bilaterally implanted with a permanent gold electrode at the round window niche. The round window is an opening from the middle ear into the inner ear. The gold electrodes were connected to a miniature plug on the skull. During the experiments, audiograms were determined between 0.5 and 45.6 kHz, at a resolution of 8 steps per octave. An automated threshold search algorithm was applied.
After a baseline audiogram was measured, the animals were pretreated with an inventive compound, as an ion channel activator, via local application to the middle ear. The corresponding solution of the inventive compound was removed after an exposure time, e. g. after 2 hours. Then, the middle ear was rinsed and dried out before CAP recordings were performed to assess threshold shifts.
Then, deafness was induced with the Guinea pigs by local application to the middle ear of a mixture of at least one ototoxic agent and at least one inventive compound. E. g. kanamycin, furosemide or mixtures of these compounds can be used as ototoxic agents.
The resulting CAP response thresholds were compared to ears which were exposed to the ototoxic agents alone.
All animals received care in accordance with the standards described by the German ‘Law on Protecting Animals’ (Tierschutzgesetz) and with the European Directive 2010/63/EU for the protection of animals used for experimental purposes. Experiments were approved by the local authorities (Application HN03/15).
All procedures were performed under anesthesia using a mixture of Fentanyl, Midazolam and Medetomidine. During surgery and measurements animals were kept on a 37° C. heating pad. For repeated recording of the Compound Action Potential (CAP) of the auditory nerve, guinea pigs were bilaterally implanted with a permanent gold electrode at the round window (RW) niche connected to a miniature plug on the skull. Audiograms were determined between 0.5 and 45.6 kHz, at a resolution of 8 steps per octave. An automated threshold search algorithm was applied.
After a baseline audiogram was measured, animals were pretreated with an ion channel activator, in this case with ACOU001, via local application to the middle ear. […]
The solution containing ACOU001 was removed after 2 hours and the middle ear rinsed and dried out before CAP recordings were performed to assess threshold shifts. […] After the final measurement on day 21, animals were sacrificed, cochleae fixed by perfusion with 4% paraformaldehyde and prepared for immunohistological analysis to quantify hair cell (HC) protection.

With `O=C(NCc1ccc(S(F)(F)(F)(F)F)cc1)c1ccc(Cl)s1` [ACOU001, 5-Chloro-N-(4-(pentafluorosulfanyl)benzyl)thiophene-2-carboxamide] the “CAP curves (threshold levels) over time after co-treatment” value (7 and 21 days after kanamycin/furosemide plus compound) was “shifted to higher threshold levels after seven days but ameliorated after 21 days”, the “reduction of hearing loss compared to the ototoxic drug alone” value (after 21 days, all frequencies, co-treatment with kanamycin/furosemide) was 25-40 dB SPL and the “CAP-threshold loss after pretreatment” value (day 0, 2 hours local application to the middle ear, compared to baseline CAP-thresholds in untreated ears) was “small, most likely conductive, hearing loss”. The “reduction of hearing loss compared to the ototoxic drug alone” value (day 0, mid to high frequencies (5-11 kHz), 100 μM with 200 mg/ml kanamycin, 50 mg/ml furosemide, local to middle ear) was roughly 25 dB SPL.
